# Assay results: ChEMBL document CHEMBL1135353, “Synthesis and initial SAR studies of 3,6-disubstituted pyrazolo[1,5-a]pyrimidines: a new class of KDR kinase inhibitors” (Bioorg Med Chem Lett, 2002)
# Target: VEGF-receptor 2 and PDGF-receptor beta (KDR and PDGFR beta) (Homo sapiens) (UniProt P09619+P35968)
# Assay: Selectivity for Vascular endothelial growth factor receptor 2 over Platelet-derived growth factor receptor beta
# Type: protein assay
# Conditions: not given
# Sequence of VEGF-receptor 2 and PDGF-receptor beta (KDR and PDGFR beta) (Homo sapiens) (P09619 whole entry, looked up): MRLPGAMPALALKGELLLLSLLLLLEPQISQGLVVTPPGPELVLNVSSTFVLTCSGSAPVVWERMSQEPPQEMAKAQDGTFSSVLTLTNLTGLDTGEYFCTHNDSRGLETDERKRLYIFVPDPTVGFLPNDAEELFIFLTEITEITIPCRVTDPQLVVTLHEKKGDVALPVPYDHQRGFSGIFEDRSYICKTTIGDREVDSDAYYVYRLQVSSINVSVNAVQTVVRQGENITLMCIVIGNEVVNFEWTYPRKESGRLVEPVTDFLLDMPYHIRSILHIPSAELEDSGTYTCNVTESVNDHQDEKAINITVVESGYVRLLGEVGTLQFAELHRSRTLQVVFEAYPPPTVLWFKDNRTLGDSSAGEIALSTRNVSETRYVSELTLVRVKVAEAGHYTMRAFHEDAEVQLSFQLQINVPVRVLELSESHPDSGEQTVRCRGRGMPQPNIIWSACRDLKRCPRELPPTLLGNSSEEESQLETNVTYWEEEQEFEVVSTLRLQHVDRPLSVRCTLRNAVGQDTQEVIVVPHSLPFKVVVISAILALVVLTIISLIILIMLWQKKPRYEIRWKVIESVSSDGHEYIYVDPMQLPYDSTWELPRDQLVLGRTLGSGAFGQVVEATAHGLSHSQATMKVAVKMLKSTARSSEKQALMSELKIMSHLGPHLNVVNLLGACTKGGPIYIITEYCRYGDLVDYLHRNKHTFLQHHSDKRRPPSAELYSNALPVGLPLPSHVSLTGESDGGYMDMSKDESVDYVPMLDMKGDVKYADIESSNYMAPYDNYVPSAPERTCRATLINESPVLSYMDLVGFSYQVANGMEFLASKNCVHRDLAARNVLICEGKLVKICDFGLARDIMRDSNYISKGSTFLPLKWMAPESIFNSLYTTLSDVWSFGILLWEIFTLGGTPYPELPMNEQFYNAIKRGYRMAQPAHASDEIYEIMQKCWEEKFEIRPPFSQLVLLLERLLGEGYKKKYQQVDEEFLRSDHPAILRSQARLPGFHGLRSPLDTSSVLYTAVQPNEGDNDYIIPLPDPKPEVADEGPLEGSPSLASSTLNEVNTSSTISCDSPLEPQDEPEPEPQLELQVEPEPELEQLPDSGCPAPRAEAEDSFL
# Sequence of VEGF-receptor 2 and PDGF-receptor beta (KDR and PDGFR beta) (Homo sapiens) (P35968 whole entry, looked up): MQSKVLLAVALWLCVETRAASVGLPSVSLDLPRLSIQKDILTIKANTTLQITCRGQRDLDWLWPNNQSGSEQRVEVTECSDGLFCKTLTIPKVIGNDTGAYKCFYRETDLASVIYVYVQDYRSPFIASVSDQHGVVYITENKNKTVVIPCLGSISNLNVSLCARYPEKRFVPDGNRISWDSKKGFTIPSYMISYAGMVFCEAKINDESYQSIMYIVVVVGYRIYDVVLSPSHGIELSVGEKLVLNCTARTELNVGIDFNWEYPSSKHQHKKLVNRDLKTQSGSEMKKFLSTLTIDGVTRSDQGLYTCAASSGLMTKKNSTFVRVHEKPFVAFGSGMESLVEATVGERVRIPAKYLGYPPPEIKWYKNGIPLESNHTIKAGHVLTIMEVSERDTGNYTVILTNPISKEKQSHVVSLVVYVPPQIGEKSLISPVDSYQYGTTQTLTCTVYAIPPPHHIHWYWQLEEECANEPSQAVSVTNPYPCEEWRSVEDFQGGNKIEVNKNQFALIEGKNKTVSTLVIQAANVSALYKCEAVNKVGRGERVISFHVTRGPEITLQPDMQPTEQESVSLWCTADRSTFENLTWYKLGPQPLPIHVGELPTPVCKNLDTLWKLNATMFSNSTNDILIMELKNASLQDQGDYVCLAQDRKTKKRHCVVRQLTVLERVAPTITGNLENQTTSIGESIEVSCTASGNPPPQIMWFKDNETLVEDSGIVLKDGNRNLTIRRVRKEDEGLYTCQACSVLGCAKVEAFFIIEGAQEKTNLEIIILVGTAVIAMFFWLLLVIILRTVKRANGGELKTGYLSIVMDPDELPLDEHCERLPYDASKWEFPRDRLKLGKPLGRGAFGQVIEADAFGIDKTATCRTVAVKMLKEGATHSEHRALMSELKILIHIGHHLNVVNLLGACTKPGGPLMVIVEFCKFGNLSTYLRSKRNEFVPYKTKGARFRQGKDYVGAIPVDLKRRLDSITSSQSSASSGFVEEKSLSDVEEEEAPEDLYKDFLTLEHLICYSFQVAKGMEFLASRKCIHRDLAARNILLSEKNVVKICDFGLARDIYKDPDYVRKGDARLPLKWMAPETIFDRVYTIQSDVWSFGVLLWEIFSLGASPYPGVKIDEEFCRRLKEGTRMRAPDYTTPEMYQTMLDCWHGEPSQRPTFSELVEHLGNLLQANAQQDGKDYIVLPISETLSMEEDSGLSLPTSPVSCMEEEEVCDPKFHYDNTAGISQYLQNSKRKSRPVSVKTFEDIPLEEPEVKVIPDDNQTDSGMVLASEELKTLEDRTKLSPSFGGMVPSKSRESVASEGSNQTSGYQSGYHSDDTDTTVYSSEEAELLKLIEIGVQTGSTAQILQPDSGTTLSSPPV
row,Ratio,SMILES
1,0.5,COc1ccc(-c2cnc3c(-c4ccncc4)cnn3c2)cc1

# Target: VEGF-receptor 2 and tyrosine-protein kinase SRC (Homo sapiens) (UniProt P12931+P35968)
# Sequence (P12931 whole entry, looked up): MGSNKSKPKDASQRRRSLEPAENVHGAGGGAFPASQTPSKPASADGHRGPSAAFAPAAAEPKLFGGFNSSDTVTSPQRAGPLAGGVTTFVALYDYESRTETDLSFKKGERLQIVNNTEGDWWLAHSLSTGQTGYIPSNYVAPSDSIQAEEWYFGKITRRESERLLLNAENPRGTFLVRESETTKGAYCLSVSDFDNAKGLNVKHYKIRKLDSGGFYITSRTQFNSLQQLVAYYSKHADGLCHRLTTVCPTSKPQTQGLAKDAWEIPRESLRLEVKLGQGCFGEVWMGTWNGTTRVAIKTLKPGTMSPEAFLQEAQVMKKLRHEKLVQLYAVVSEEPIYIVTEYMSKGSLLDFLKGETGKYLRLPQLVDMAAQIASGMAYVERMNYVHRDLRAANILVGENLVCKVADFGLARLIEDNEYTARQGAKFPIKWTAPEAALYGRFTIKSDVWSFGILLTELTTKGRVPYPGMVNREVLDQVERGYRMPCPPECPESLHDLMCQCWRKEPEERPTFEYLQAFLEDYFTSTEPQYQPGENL
# Sequence (P35968 whole entry, looked up): as the sequence (P35968 whole entry, looked up) above
# Assay: Selectivity for Vascular endothelial growth factor receptor 2 over c-Src kinase
# Type: protein assay
# Conditions: not given
row,Ratio,SMILES
1,27,COc1ccc(-c2cnc3c(-c4ccncc4)cnn3c2)cc1

# Target: Vascular endothelial growth factor receptor 2 (Homo sapiens, UniProt P35968)
# Sequence (P35968 whole entry): as the sequence (P35968 whole entry, looked up) above
# Assay: Inhibitory activity at VEGF-2 receptor.
# Conditions: not given
row,IC50 [µM],SMILES
1,0.062,Cc1ccc(-c2cnc3c(-c4ccncc4)cnn3c2)cc1
2,0.265,Fc1ccc(-c2cnn3cc(-c4ccncc4)cnc23)cc1Cl
3,0.063,Fc1ccc(-c2cnn3cc(-c4ccncc4)cnc23)cc1
4,0.113,Clc1ccc(-c2cnc3c(-c4ccncc4)cnn3c2)cc1
5,0.028,C1=C(c2cnn3cc(-c4ccncc4)cnc23)CCC1
6,0.041,C1=C(c2cnn3cc(-c4ccncc4)cnc23)CCCC1
7,0.28,c1cc(-c2cnn3cc(C4CCCCC4)cnc23)cs1
8,0.088,c1ccc(-c2cnn3cc(-c4ccccn4)cnc23)cc1
9,0.041,COc1ccc(-c2cnc3c(-c4cccnc4)cnn3c2)cc1
10,1,COc1ccc(-c2cnc3c(-c4ccccn4)cnn3c2)cc1
11,0.35,Clc1cccc(-c2cnn3cc(-c4ccncc4)cnc23)c1
12,0.071,c1ccc(-c2cnn3cc(-c4ccncc4)cnc23)cc1
13,0.51,COc1cccc(-c2cnn3cc(-c4ccncc4)cnc23)c1

# Target: Vascular endothelial growth factor receptor 2 and 3 (KDR and Flt-4) (Homo sapiens) (UniProt P35916+P35968)
# Sequence (P35916 whole entry, looked up): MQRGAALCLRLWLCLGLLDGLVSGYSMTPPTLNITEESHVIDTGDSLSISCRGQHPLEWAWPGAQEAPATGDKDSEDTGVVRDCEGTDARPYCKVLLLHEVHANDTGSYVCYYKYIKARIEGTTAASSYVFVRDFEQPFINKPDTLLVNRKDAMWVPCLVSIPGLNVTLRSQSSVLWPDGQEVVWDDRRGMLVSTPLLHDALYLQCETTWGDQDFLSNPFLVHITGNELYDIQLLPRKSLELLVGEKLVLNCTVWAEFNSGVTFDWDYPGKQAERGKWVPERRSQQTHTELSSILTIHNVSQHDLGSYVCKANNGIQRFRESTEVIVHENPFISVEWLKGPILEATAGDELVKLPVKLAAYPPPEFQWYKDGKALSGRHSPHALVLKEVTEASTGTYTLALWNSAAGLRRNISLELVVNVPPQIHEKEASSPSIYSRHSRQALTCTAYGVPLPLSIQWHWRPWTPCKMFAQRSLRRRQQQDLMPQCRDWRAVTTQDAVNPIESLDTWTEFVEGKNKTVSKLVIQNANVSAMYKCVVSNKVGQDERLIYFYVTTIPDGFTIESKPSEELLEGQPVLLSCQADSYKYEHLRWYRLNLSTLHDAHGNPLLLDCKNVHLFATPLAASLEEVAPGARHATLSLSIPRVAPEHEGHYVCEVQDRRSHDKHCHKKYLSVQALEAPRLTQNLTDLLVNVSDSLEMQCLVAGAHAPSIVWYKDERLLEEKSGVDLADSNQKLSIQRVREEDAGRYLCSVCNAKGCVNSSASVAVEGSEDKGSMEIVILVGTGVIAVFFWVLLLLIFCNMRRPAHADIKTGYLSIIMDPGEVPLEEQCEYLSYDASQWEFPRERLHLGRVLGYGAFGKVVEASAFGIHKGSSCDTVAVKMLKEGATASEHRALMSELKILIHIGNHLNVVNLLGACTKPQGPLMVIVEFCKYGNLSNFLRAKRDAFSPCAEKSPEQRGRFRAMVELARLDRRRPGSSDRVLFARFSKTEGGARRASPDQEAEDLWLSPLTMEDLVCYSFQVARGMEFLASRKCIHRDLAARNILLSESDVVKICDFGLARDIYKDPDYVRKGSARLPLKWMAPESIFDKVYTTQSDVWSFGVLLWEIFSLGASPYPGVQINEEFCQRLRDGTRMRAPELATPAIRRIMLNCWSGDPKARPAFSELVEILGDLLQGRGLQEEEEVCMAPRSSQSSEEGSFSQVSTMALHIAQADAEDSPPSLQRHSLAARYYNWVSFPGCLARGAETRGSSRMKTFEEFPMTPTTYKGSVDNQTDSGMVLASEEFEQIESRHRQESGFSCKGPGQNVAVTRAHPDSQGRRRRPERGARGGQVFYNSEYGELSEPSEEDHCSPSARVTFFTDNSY
# Sequence (P35968 whole entry, looked up): as the sequence (P35968 whole entry, looked up) above
# Assay: Selectivity for VEGF-receptor 2 (KDR) over Vascular endothelial growth factor receptor 3 (FLT4)
# Type: protein assay
# Conditions: not given
row,Ratio,SMILES
1,2.2,COc1ccc(-c2cnc3c(-c4ccncc4)cnn3c2)cc1

# System: not listed separately
# Assay: Partition coefficient (logP)
# Type: physicochemical
# Conditions: octanol/water
row,logP,SMILES
1,4,COc1ccc(-c2cnc3c(-c4ccncc4)cnn3c2)cc1
2,> 4,COc1ccc(-c2cnc3c(-c4ccsc4)cnn3c2)cc1
3,2.5,c1cc(-c2cnc3c(-c4ccncc4)cnn3c2)ccn1

# Target: Vascular endothelial growth factor receptor (Homo sapiens, UniProt P17948+P35916+P35968)
# Conditions: endothelial cell
# Description: Inhibition of VEGF-stimulated mitogenesis in human umbilical vein endothelial cells
row,IC50 [µM],SMILES
1,0.127,c1cc(-c2cnc3c(-c4ccsc4)cnn3c2)ccn1
